Data published in US12103915B2, “TEAD inhibitors and methods of uses thereof” (Insilico Medicine IP Limited, priority 2022, dated 2024).

Experiments:
TEAD2 = TEAD2 (Homo sapiens, UniProt Q15562); assay: Thermal shift assay TEAD2; type: binding
Method in brief: (§1)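 Compounds tested at 10 μM and 1 μM, 0.1% DMSO final, with TEAD1 at 0.2 mg/ml or TEAD2 at 0.08 mg/ml final. Melting monitored with Protein Thermal Shift dye on a qPCR instrument.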

TEAD1 = TEAD1 (Homo sapiens, UniProt P28347); assay: Thermal shift assay TEAD1; type: binding
Method in brief: as §1

TEAD3 = TEAD3 (Homo sapiens, UniProt Q99594); assay: Thermal shift assay TEAD3; type: binding
Method in brief: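 TEAD3 protein at 0.1 mg/ml final melted with Protein Thermal Shift dye on a qPCR instrument. Compounds tested at 10 μM and 1 μM in PBS, final DMSO 0.1%.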

TEAD4 = TEAD4 (Homo sapiens, UniProt Q15561); assay: Thermal shift assay TEAD4; type: binding
Method in brief: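 Protein thermal shift with TEAD4 at 0.1 mg/ml final, Protein Thermal Shift dye, compounds at 10 μM or 1 μM in PBS with 0.1% DMSO final. Melt reactions assembled on ice and run on a qPCR instrument.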

NCI-H226 cells = assay: Cell growth assay (CellTiter-Glo); type: cell-based, human; settings: Homo sapiens, NCI-H226, 168 h, 7 days treatment, CellTiter-Glo luminescence, read-out: H226 CTG IC50
[1] = Pharmacokinetic profile evaluation in mice; type: in vivo, CD-1 mice; settings: CD-1; mouse, oral administration at 10 mg/kg, plasma
Experimental: Example C: Pharmacokinetic Profile Evaluation
Three CD-1 mice of SPF. (Sino-British SIPPR/BK Lab Animal Ltd, Shanghai.) were intravenously administrated with given compounds (Formulation: 5% DMSO+10% Solutol+85% Saline) or orally gavage administrated with given compounds (Formulation: 5% DMSO+10% Solutol+85% Saline). The blood samples were taken via cephalic vein at timepoints 0.083 h, 0.25 h, 0.5 h, 1 h, 2 h, 4 h, 8 h, and 24 h after intravenous (iv) administration or at timepoints 0.25 h, 0.5 h, 1 h, 2 h, 4 h, 6 h, 8 h, and 24 h after oral gavage administration, 30 μL/time point. Blood samples were placed in tubes containing K2-EDTA and stored on ice until centrifuged. The blood samples were centrifuged at 6800 g for 6 minutes at 2-8° C. within 1 h after collected and stored frozen at approximately −80° C. An aliquot of 20 μL plasma samples were protein precipitated with 400 μL MeOH in which contains 100 ng/mL Verapamil (IS). The mixture was vortexed for 1 min and centrifuged at 18000 g for 10 min. Transfer 400 μL supernatant to 96 well plates. An aliquot of 5 μL supernatant was injected for LC-MS/MS analysis by LC-MS/MS-27 (TQ6500+) instrument. The analytical results were confirmed using quality control samples for intra-assay variation. The accuracy of >66.7% of the quality control samples should be between 80-120% of the known value(s). Standard set of parameters including Area Under the Curve (AUC(0-t)), maximum plasma concentration (Cmax), elimination half-life (T1/2) will be calculated using noncompartmental analysis modules in FDA certified pharmacokinetic program Phoenix WinNonlin 7.0 (Pharsight, USA).

Sequence of TEAD1 (P28347 whole entry, species assumed): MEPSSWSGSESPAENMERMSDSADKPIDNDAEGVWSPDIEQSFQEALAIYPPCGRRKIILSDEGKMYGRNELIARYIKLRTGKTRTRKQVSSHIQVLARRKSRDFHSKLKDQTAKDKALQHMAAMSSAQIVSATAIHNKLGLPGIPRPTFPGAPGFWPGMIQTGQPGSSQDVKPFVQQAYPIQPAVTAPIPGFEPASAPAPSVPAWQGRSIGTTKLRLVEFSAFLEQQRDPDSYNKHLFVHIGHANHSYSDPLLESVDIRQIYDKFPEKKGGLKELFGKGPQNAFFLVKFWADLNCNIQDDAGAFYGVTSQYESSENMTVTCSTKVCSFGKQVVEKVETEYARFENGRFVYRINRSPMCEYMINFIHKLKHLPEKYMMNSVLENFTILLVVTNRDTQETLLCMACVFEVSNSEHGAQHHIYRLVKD
Sequence of TEAD2 (Q15562 whole entry, species assumed): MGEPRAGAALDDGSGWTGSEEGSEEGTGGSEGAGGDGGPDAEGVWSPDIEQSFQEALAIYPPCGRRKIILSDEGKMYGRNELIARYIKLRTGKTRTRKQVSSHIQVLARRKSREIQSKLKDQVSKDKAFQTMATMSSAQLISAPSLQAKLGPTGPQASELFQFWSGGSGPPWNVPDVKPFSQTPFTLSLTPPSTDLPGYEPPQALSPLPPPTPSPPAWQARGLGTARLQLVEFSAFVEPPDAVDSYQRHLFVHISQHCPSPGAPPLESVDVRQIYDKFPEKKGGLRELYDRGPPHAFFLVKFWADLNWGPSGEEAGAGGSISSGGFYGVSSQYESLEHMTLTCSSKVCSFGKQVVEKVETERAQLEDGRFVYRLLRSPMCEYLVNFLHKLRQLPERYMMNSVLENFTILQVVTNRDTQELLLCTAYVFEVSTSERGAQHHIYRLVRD
Sequence of TEAD4 (Q15561 whole entry, species assumed): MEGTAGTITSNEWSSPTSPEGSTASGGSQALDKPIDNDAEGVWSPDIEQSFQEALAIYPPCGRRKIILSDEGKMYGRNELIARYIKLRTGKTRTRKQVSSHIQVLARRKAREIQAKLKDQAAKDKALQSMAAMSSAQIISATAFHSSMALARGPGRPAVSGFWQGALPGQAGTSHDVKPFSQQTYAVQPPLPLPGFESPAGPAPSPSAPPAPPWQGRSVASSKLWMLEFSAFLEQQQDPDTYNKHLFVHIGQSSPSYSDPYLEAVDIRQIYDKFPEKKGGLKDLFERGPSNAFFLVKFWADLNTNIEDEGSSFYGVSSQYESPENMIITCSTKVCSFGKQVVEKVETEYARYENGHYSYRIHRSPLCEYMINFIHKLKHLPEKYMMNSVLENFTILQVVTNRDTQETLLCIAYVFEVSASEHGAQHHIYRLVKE
Sequence of TEAD3 (Q99594 whole entry, species assumed): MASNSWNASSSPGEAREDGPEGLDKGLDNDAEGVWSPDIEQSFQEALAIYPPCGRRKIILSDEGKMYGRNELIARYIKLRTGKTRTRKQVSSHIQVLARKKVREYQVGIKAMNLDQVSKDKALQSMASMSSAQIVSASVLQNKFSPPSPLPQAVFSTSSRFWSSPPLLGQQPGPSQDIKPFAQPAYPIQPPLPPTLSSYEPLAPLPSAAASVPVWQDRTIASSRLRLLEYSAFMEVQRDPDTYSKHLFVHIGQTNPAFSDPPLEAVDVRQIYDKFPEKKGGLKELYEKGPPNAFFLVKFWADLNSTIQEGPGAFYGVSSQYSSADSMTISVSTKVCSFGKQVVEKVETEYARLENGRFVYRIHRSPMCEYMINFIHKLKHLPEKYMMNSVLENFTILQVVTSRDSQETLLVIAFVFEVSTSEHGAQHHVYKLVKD

Row | TEAD2 ΔTm (TEAD2) [°C] | TEAD1 ΔTm (TEAD1) [°C] | TEAD3 ΔTm (TEAD3) [°C] | TEAD4 ΔTm (TEAD4) [°C] | IC50 (NCI-H226 cells) [µM] | AUC(0-t) [1] [µg·h/mL] | Cmax [1] [ng/mL] | half-life [1] [h] | SMILES
1 | 12.7 | 11.6 | 13.1 | 11.8 | 0.1 to 0.5 | 676 | 40100 | 26.4 | Cn1cc2cc(Oc3ccc(C(F)(F)F)cc3)cc(C3C[C@H]3C(=O)O)c2n1 (mixture of isomers) [Example 16]
2 | 14 | 8.8 | 7.4 | 9.1 | 0.1 to 0.5 | 617 | 41200 | 11.2 | Cn1ncc2c(C3C[C@H]3C(=O)O)cc(Oc3ccc(C(F)(F)F)cc3)cc21 (mixture of isomers) [Example 18]
3 | 4.5 | 2.4 | 0.3 | 2.4 | 0.1 to 0.5 | 70 | 5530 | 5.2 | CNC(=O)[C@@H]1CC1c1cc(-c2ccc(C(F)(F)F)cc2)cc2c1cnn2C (mixture of isomers) [Example 24]
4 | 9.8 | 8.2 | 9.2 | 11.1 | < 0.1 | 51.6 | 4120 | 4.8 | Cn1cc2cc(Oc3ccc(C(F)(F)F)cc3)cc(C3C[C@H]3C(=O)N3C[C@@H]4C[C@H]3C[C@@H]4O)c2n1 (single isomer, unassigned) [Example 103f]
5 | 10.2 | 8.4 | 1.9 | 10.1 | < 0.1 |  |  |  | CO[C@@H]1CN(C(=O)[C@@H]2C[C@H]2c2cc(Oc3ccc(C(F)(F)F)cc3)cc3cn(C)nc23)C[C@H]1O (single isomer, unassigned) [Example 112b]
6 | 11.9 | 9.1 | 9.3 | 9.6 | < 0.1 |  |  |  | Cn1cc2cc(Oc3ccc(C(F)(F)F)cc3)cc([C@@H]3C[C@H]3C(=O)NCCO)c2n1 (single isomer, unassigned) [Example 125]
7 | 6.0 | 6.8 | 1.5 | 5.8 | < 0.1 |  |  |  | Cn1cc2cc(Oc3ccc(C(F)(F)F)cc3)cc([C@@H]3C[C@H]3C(=O)N=S(C)(C)=O)c2n1 (single isomer, unassigned) [Example 134]
8 | 11.1 | 7.6 | 8.9 | 10.6 | < 0.1 |  |  |  | Cn1cc2cc(Oc3ccc(C(F)(F)F)c(F)c3)cc([C@@H]3C[C@H]3C(=O)N3C[C@@H]4C[C@H]3C[C@@H]4O)c2n1 (single isomer, unassigned) [Example 140]
9 | 10.9 | 10.4 | 7.2 | 11.2 | 1 to 30 |  |  |  | CC(=O)NS(=O)(=O)CCc1cc(-c2ccc(C(F)(F)F)cc2)cc2cn(C)nc12 [Example 46]
10 | 11.4 | 8.9 | 10.2 | 9.7 | 0.1 to 0.5 |  |  |  | CNS(=O)(=O)CCc1cc(Oc2ccc(C(F)(F)F)cc2)cc2cccnc12 [Example 142]
11 | 13.2 | 9.6 | 10.3 | 8.8 | < 0.1 |  |  |  | CNS(=O)(=O)CCc1cc(Oc2ccc(C(F)(F)F)cc2)cc2c1NCCC2 [Example 143]

Further lines, the molecule ahead of its results:

Row | SMILES | TEAD2 ΔTm (TEAD2) [°C] | TEAD1 ΔTm (TEAD1) [°C] | TEAD3 ΔTm (TEAD3) [°C] | TEAD4 ΔTm (TEAD4) [°C] | IC50 (NCI-H226 cells) [µM] | AUC(0-t) [1] [µg·h/mL] | Cmax [1] [ng/mL] | half-life [1] [h]
12 | Cn1cc2cc(-c3ccc(C(F)(F)F)cc3)cc(C3C[C@H]3C(=O)O)c2n1 (mixture of isomers) [Example 2] | 7 | 8.1 | 2.7 | 11.4 | < 0.1 | 104 | 9750 | 5.4
13 | O=C(O)[C@@H]1CC1c1cc(Oc2ccc(C(F)(F)F)cc2)cc2cccnc12 (mixture of isomers) [Example 17] | 14.2 | 9.2 | 11.7 | 10.1 | 0.1 to 0.5 | 497 | 33700 | 26
14 | CNC(=O)[C@H]1C[C@@H]1c1cc(Oc2ccc(C(F)(F)F)cc2)cc2cn(C)nc12 (single isomer, unassigned) [Example 34b] | 14.2 | 10.2 | 10.9 | 11.3 | < 0.1 | 31.8 | 3180 | 2.2
15 | Cn1cc2cc(Oc3ccc(C(F)(F)F)cc3)cc([C@@H]3C[C@H]3C(=O)N3CC4CC3C(=O)N4)c2n1 (single isomer, unassigned) [Example 121] | 10.6 | 7.9 | 2.0 | 8.9 | < 0.1 |  |  | 
16 | Cn1cc2cc(Oc3ccc(C(F)(F)F)cc3)cc([C@@H]3C[C@H]3C(=O)N3CC4CC(C3)N4)c2n1 (single isomer, unassigned) [Example 123] | 9.1 | 7.7 | 1.8 | 9.2 | < 0.1 |  |  | 
17 | CN(C#N)C(=O)[C@@H]1C[C@H]1c1cc(Oc2ccc(C(F)(F)F)cc2)cc2cn(C)nc12 (single isomer, unassigned) [Example 124] | 9.8 | 6.0 | 1.0 | 7.7 | 1 to 30 |  |  | 
18 | Cn1cc2cc(Oc3ccc(C(F)(F)F)c(F)c3)cc([C@@H]3C[C@H]3C(=O)N3CC(O)C3)c2n1 (single isomer, unassigned) [Example 132] | 15.8 | 10.9 | 13.9 | 13.7 | < 0.1 |  |  | 
19 | Cn1cc2cc(Oc3ccc(C(F)(F)F)cc3)cc([C@@H]3C[C@H]3C(=O)N3CCC34CC(=O)C4)c2n1 (single isomer, unassigned) [Example 135] | 25.0 | 25.0 | 18.0 | 6.9 | 0.1 to 0.5 |  |  | 
20 | Cn1cc2cc(Oc3ccc(Cl)cc3)cc([C@@H]3C[C@H]3C(=O)N3C[C@@H]4C[C@H]3C[C@@H]4O)c2n1 (single isomer, unassigned) [Example 139] | 9.2 | 5.5 | 2.8 | 7.6 | < 0.1 |  |  | 
21 | CN(C)C(=O)[C@@H]1C[C@H]1c1cc(Oc2ccc(C(F)(F)F)c(F)c2)cc2cn(C)nc12 (single isomer, unassigned) [Example 141] | 16.2 | 9.3 | 11.4 | 12.0 | < 0.1 |  |  | 
22 | CNC(=O)[C@@H]1CC1c1cc(-c2ccc(C(F)(F)F)cc2)cc2c1cnn2C (stereo partly shown) [Example 40] | 2.7 | 1.9 | 0.2 | 0.7 | 0.1 to 0.5 |  |  | 
23 | CNS(=O)(=O)/C=C/c1cc(-c2ccc(C(F)(F)F)cc2)cc2c1cnn2C [Example 41] | 1.2 | 2.1 | 0.7 | 1.4 | < 0.1 |  |  | 
24 | CNS(=O)(=O)CCc1cc(-c2ccc(C(F)(F)F)cc2)cc2c1cnn2C [Example 42] | 4.1 | 7.3 | 3.5 | 3.8 | < 0.1 |  |  | 
25 | CNS(=O)(=O)CCCc1cc(-c2ccc(C(F)(F)F)cc2)cc2cn(C)nc12 [Example 47] | 1.9 | 4.7 | −0.8 | 5.7 | 1 to 30 |  |  | 
26 | CNS(=O)(=O)CCc1cc(N2CCC3(CCCC3)CC2)cc2cn(C)nc12 [Example 48] | 9.4 | 6.3 | 1.9 | 8.4 | 1 to 30 |  |  | 
